# Test results: patent US6682896B1, “Peptides representing epitopic sites on r-IFN-β, antibodies thereto and uses thereof” (Schering Aktiengesellschaft, priority 1988, dated 2004)
# Columns and labels:
# Conditions in all cases: 50 μg peptide per well dried to well; goat anti-mouse/HRP, ABTS
# non-neutralizing mAb B2b = experiment: ELISA binding of mAb B2b to plate-dried synthetic peptides
# Procedure: (§1) A series of enzyme-linked immunosorbent assays (ELISA) were run in which a panel of three neutralizing mab's, identified as A1, A5 and A7 (developed by […] Grossberg at the Medical College of Wisconsin) and a single non-neutralizing mAb, identified as B2b (received from Medical College of Wisconsin, […] and S. Grossberg), was assessed for binding to synthetic peptides IB, IC, IE, and a control. In each case, the peptide was dissolved in 0.05M Tris buffer, pH 9.5 and aliquoted in 100 μl volumes to wells of a microtiter plate (Corning) at a concentration of 50 μg peptide per well. The plate was placed in a vacuum dessicator overnight to dry the peptide to the well. Standard ELISA procedures were followed after the overnight coupling, i.e. common blocking steps, washes, incubation conditions and color development of the appropriate goat anti-mouse/horseradish peroxidase conjugate with ABTS substrate. […] The non neutralizing mAb B2b reacted with peptides IB and IC but not with IE.
# neutralizing mAb A5 = experiment: ELISA binding of mAb A5 to plate-dried synthetic peptides
# Procedure: as §1
# neutralizing mAb A7 = experiment: ELISA binding of mAb A7 to plate-dried synthetic peptides
# Procedure: as §1
substance,measurement,setting,value
"H-IPEEIKQL-OH [peptide IE, NH2-Ile-Pro-Glu-Glu-Ile-Lys-Gln-Leu-COOH]",Reaction (binding) of non-neutralizing mAb B2b with peptide in ELISA,non-neutralizing mAb B2b,not with IE
same,Reaction (binding) of mAb A5 with peptide in ELISA,neutralizing mAb A5,preferential binding
same,Reaction (binding) of mAb A7 with peptide in ELISA,neutralizing mAb A7,virtually no activity
